The IC50 is the concentration that gives 50% inhibition. A higher IC50 goes with weaker potency in that assay.

Non-standard residues stand in square brackets, D forms with d. Residues, ends and D or L forms follow the SMILES beside them.

This experiment concerns the target GPR54 (Homo sapiens, UniProt Q969F8). Nature of the experiment: Inositol phosphate (IP) antagonism assay: inhibition of 10 nM kisspeptin-10 stimulation of IP in CHO/gpr-54 cells. Conditions: CHO cells, 10 nM kisspeptin-10; for IC50: unit inferred, given in M. On the set-up: G. Vassart, Univ; Brussels. It is filed as cell-based. The method, then:
Inositol-3-phoshate Antagonistic Assay—Cell monolayers had 0.5 mls HEPES modified DMEM supplemented with […] for 30 mins at 37° C. to block IP3 breakdown. Cells were then stimulated with 0.25 mls 10 nM Kisspeptin-10 plus 0.25 mls of 10 nM Kisspeptin-10 or analogues (10 pM-10 uM) diluted at 1:1000 in the above media for 1 hr at 37° C., then in 10 mM Formic acid at 4° C. for 1 hr to lyse cells. Lysate was then transferred to plastic tubes containing 0.5 mls Dowex resin to bind the radioactive IP3 and the resin was then washed with 1 ml H2O. The resin was then washed with 60 mM NH4 formate/5 mM Sodium tetraborate followed by 1M NH4 formate/0.1M Formic acid to release the bound radiation. Then 800 μls of the radioactive solution were transferred to scintillation vials containing 2.5 mls scintillation fluid and radioactivity counted on a Beta counter for 60 seconds.
Chinese hamster ovary (CHO) cells stably-expressing the human gpr-54 receptor (CHO/gpr-54) were obtained from Prof. G. Vassart, Univ. Brussels. The cells were maintained in Dulbecco's modified Eagle's medium (DMEM; Sigma) supplemented with 10% fetal calf serum, 2% glutamine and 1% penicillin (10,000 units/ml)/streptomycin ([…]) at 37° C. in a humidified 5% CO2 atmosphere.
Experiments were repeated 3-5 times. IP production was plotted as mean values±SEM and analyzed using a Student's t-Test ([…]).

GPR54, sequence (Q969F8 whole entry): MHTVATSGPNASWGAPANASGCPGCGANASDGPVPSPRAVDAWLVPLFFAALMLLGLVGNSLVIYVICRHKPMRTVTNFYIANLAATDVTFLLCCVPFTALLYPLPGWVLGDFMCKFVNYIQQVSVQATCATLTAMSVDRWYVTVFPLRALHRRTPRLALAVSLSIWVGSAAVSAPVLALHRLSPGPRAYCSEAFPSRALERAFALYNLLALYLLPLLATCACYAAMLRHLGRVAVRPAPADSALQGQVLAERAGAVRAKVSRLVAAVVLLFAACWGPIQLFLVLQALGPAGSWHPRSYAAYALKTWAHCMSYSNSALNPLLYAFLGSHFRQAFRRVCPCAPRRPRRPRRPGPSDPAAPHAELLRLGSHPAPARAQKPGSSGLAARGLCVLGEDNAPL

Turning to `CC(=O)N[C@@H](CC(N)=O)C(=O)N[C@@H](CO)C(=O)N[C@@H](Cc1ccccc1)C(=O)NCC(=O)N[C@@H](CC(C)C)C(=O)N[C@@H](CCCNC(=N)N)C(=O)N[C@@H](Cc1ccccc1)C(N)=O` [Peptide 186] (Ac-NSFGLRF-NH2), the “Inhibition of IP stimulation by 10 nM Agonist: % Inhibition of Max” value (from here on “Inhibition … % Inhibition of Max”) worked out at 70%. The same measure, in the same setting: as for `CC(C)C[C@H](NC(=O)CNC(=O)[C@H](Cc1ccccc1)NC(=O)[C@H](CO)NC(=O)[C@H](CC(N)=O)NC(=O)[C@H](Cc1c[nH]c2ccccc12)NC(=O)[C@H](CC(N)=O)NC(=O)[C@@H](N)Cc1ccc(O)cc1)C(=O)N[C@@H](CCCNC(=N)N)C(=O)N[C@@H](Cc1c[nH]c2ccccc12)C(N)=O` [Peptide 187] (H-YNWNSFGLRW-NH2), the figure is 36%; as for `CC(=O)N[C@@H](Cc1ccccc1)C(=O)NCC(=O)N[C@@H](CC(C)C)C(=O)N[C@@H](CCCNC(=N)N)C(=O)N[C@@H](Cc1ccccc1)C(N)=O` [Peptide 188] (Ac-FGLRF-NH2), 74%; as for `CC(=O)N[C@@H](Cc1ccccc1)C(=O)NCC(=O)N[C@@H](CC(C)C)C(=O)N[C@@H](CCCNC(=N)N)C(=O)N[C@@H](Cc1c[nH]c2ccccc12)C(N)=O` [Peptide 189], 94%. Consider `CC(=O)N[C@@H](Cc1ccccc1)C(=O)NCC(=O)N[C@H](Cc1ccccc1)C(=O)N[C@@H](CCCNC(=N)N)C(=O)N[C@@H](Cc1c[nH]c2ccccc12)C(N)=O` [Peptide 190] (Ac-FG[dF]RW-NH2), for which the “Inhibition … % Inhibition of Max” value is recorded as 71% and the IC50 came out at 10 nM. For `CC(=O)N[C@@H](Cc1ccccc1)C(=O)NCC(=O)N[C@H](CC(C)C)C(=O)N[C@@H](CCCNC(=N)N)C(=O)N[C@@H](Cc1c[nH]c2ccccc12)C(N)=O` [Peptide 191], the “Inhibition … % Inhibition of Max” value came out at 79%. Consider `CC(=O)N[C@@H](Cc1ccccc1)C(=O)NCC(=O)N[C@@H](CC(C)C)C(=O)N[C@H](CCCNC(=N)N)C(=O)N[C@@H](Cc1c[nH]c2ccccc12)C(N)=O` [Peptide 200], for which the “Inhibition … % Inhibition of Max” value is given as 63% and the IC50 came to 300 nM. Taken in the same sequence, the figures for `CC(=O)N[C@@H](Cc1ccccc1)C(=O)NCC(=O)N[C@@H](C)C(=O)N[C@@H](CCCNC(=N)N)C(=O)N[C@@H](Cc1c[nH]c2ccccc12)C(N)=O` [Peptide 201] (Ac-FGARW-NH2) were 69% and 7 nM. Turning to `CC(=O)N[C@@H](C)C(=O)NCC(=O)N[C@@H](CC(C)C)C(=O)N[C@@H](CCCNC(=N)N)C(=O)N[C@@H](Cc1c[nH]c2ccccc12)C(N)=O` [Peptide 202] (Ac-AGLRW-NH2), the “Inhibition … % Inhibition of Max” value was determined as 64% and the IC50 came to 10 nM. For the compound `CC(=O)N[C@H](Cc1ccccc1)C(=O)N[C@@H](Cc1c[nH]c2ccccc12)C(=O)N[C@@H](CC(C)C)C(=O)N[C@@H](CCCNC(=N)N)C(=O)N[C@@H](Cc1c[nH]c2ccccc12)C(N)=O` [Peptide 203] (Ac-[dF]WLRW-NH2), the “Inhibition … % Inhibition of Max” value was 71% and the IC50 worked out at 0.1 nM. Taken in the same sequence, the figures for `CC(=O)N[C@@H](Cc1ccccc1)C(=O)NCC(=O)N[C@H](Cc1c[nH]c2ccccc12)C(=O)N[C@@H](CCCNC(=N)N)C(=O)N[C@@H](Cc1ccccc1)C(N)=O` [Peptide 206] (Ac-FG[dW]RF-NH2) were 68% and 10 nM. In the same order, the values of `CC(C)C[C@H](NC(=O)CNC(=O)[C@H](Cc1ccccc1)NC(=O)CNC(=O)[C@H](CC(N)=O)NC(=O)[C@H](Cc1c[nH]c2ccccc12)NC(=O)[C@H](CC(N)=O)NC(=O)[C@@H](N)Cc1ccc(O)cc1)C(=O)N[C@@H](CCCNC(=N)N)C(=O)N[C@@H](Cc1ccccc1)C(N)=O` [Peptide 208] (H-YNWNGFGLRF-NH2) are 55% and 1000 nM.

As to `CC(C)C[C@@H](NC(=O)CNC(=O)[C@H](Cc1ccccc1)NC(=O)CNC(=O)[C@H](CC(N)=O)NC(=O)[C@H](Cc1c[nH]c2ccccc12)NC(=O)[C@H](CC(N)=O)NC(=O)[C@@H](N)Cc1ccc(O)cc1)C(=O)N[C@@H](CCCNC(=N)N)C(=O)N[C@@H](Cc1ccccc1)C(N)=O` [Peptide 209] (H-YNWNGFG[dL]RF-NH2), the “Inhibition … % Inhibition of Max” value is 61% and the half-inhibitory concentration (IC50) stood at 100 nM. Taken in the same sequence, the figures for `N=C(N)NCCC[C@H](NC(=O)[C@@H](Cc1c[nH]c2ccccc12)NC(=O)CNC(=O)[C@H](Cc1ccccc1)NC(=O)CNC(=O)[C@H](CC(N)=O)NC(=O)[C@H](Cc1c[nH]c2ccccc12)NC(=O)[C@H](CC(N)=O)NC(=O)[C@@H](N)Cc1ccc(O)cc1)C(=O)N[C@@H](Cc1ccccc1)C(N)=O` [Peptide 210] (H-YNWNGFG[dW]RF-NH2) were 64% and less than 0.1 nM. Taken in the same sequence, the figures for `CC(C)C[C@H](NC(=O)CNC(=O)[C@@H](Cc1ccccc1)NC(=O)CNC(=O)[C@H](CC(N)=O)NC(=O)[C@H](Cc1c[nH]c2ccccc12)NC(=O)[C@H](CC(N)=O)NC(=O)[C@@H](N)Cc1ccc(O)cc1)C(=O)N[C@@H](CCCNC(=N)N)C(=O)N[C@@H](Cc1ccccc1)C(N)=O` [Peptide 211] (H-YNWNG[dF]GLRF-NH2) were 73% and 1000 nM.

As for `CC(C)C[C@H](NC(=O)CNC(=O)[C@@H](Cc1c[nH]c2ccccc12)NC(=O)CNC(=O)[C@H](CC(N)=O)NC(=O)[C@H](Cc1c[nH]c2ccccc12)NC(=O)[C@H](CC(N)=O)NC(=O)[C@@H](N)Cc1ccc(O)cc1)C(=O)N[C@@H](CCCNC(=N)N)C(=O)N[C@@H](Cc1ccccc1)C(N)=O` [Peptide 212] (H-YNWNG[dW]GLRF-NH2), the “Inhibition … % Inhibition of Max” value is reported as 68% and the IC50 was less than 0.1 nM. In the case of `CC(=O)N[C@@H](Cc1ccc(O)cc1)C(=O)N[C@@H](CC(N)=O)C(=O)N[C@@H](Cc1c[nH]c2ccccc12)C(=O)N[C@@H](CC(N)=O)C(=O)NCC(=O)N[C@@H](Cc1ccccc1)C(=O)NCC(=O)N[C@H](Cc1c[nH]c2ccccc12)C(=O)N[C@@H](CCCNC(=N)N)C(=O)N[C@@H](Cc1ccccc1)C(N)=O` [Peptide 228] (Ac-YNWNGFG[dW]RF-NH2), the “Inhibition … % Inhibition of Max” value came out at 58% and the half-maximal inhibitory concentration (IC50) was 50 nM. Regarding `CC(=O)N[C@@H](Cc1ccc(O)cc1)C(=O)N[C@@H](CC(N)=O)C(=O)N[C@@H](Cc1c[nH]c2ccccc12)C(=O)N[C@@H](CC(N)=O)C(=O)N[C@H](Cc1c[nH]c2ccccc12)C(=O)N[C@@H](Cc1ccccc1)C(=O)NCC(=O)N[C@H](Cc1c[nH]c2ccccc12)C(=O)N[C@@H](CCCNC(=N)N)C(=O)N[C@@H](Cc1ccccc1)C(N)=O` [Peptide 229] (Ac-YNWN[dW]FG[dW]RF-NH2), the “Inhibition … % Inhibition of Max” value turned out to be 68% and the half-maximal inhibitory concentration (IC50) is 8000 nM. In the case of `CC(=O)N[C@@H](Cc1ccc(O)cc1)C(=O)N[C@@H](CC(N)=O)C(=O)N[C@H](Cc1c[nH]c2ccccc12)C(=O)N[C@@H](CC(N)=O)C(=O)NCC(=O)N[C@@H](Cc1ccccc1)C(=O)NCC(=O)N[C@H](Cc1c[nH]c2ccccc12)C(=O)N[C@@H](CCCNC(=N)N)C(=O)N[C@@H](Cc1ccccc1)C(N)=O` [Peptide 231] (Ac-YN[dW]NGFG[dW]RF-NH2), the “Inhibition … % Inhibition of Max” value was found to be 55% and the midpoint of inhibition, the IC50, lay at 0.1 nM. Turning to `CC(=O)N[C@H](Cc1ccc(O)cc1)C(=O)N[C@@H](CC(N)=O)C(=O)N[C@@H](Cc1c[nH]c2ccccc12)C(=O)N[C@@H](CC(N)=O)C(=O)NCC(=O)N[C@@H](Cc1ccccc1)C(=O)NCC(=O)N[C@@H](Cc1c[nH]c2ccccc12)C(=O)N[C@@H](CCCNC(=N)N)C(=O)N[C@@H](Cc1ccccc1)C(N)=O` [Peptide 237] (Ac-[dY]NWNGFGWRF-NH2), the “Inhibition … % Inhibition of Max” value was found to be 0%. On the same count and under the same terms, as for `CC(=O)N[C@H](Cc1ccc(O)cc1)C(=O)N[C@@H](CC(N)=O)C(=O)N[C@@H](Cc1c[nH]c2ccccc12)C(=O)N[C@@H](CC(N)=O)C(=O)N[C@@H](CO)C(=O)N[C@@H](Cc1ccccc1)C(=O)NCC(=O)N[C@H](Cc1c[nH]c2ccccc12)C(=O)N[C@@H](CCCNC(=N)N)C(=O)N[C@@H](Cc1ccccc1)C(N)=O` [Peptide 238] (Ac-[dY]NWNSFG[dW]RF-NH2), the figure is 0%; as for `CC(=O)N[C@H](Cc1ccc(O)cc1)C(=O)N[C@H](CC(N)=O)C(=O)N[C@@H](Cc1c[nH]c2ccccc12)C(=O)N[C@@H](CC(N)=O)C(=O)N[C@@H](CO)C(=O)N[C@@H](Cc1ccccc1)C(=O)NCC(=O)N[C@@H](Cc1c[nH]c2ccccc12)C(=O)N[C@@H](CCCNC(=N)N)C(=O)N[C@@H](Cc1ccccc1)C(N)=O` [Peptide 239] (Ac-[dY][dN]WNSFGWRF-NH2), 0%. Take `CC(=O)N[C@H](Cc1c[nH]c2ccccc12)C(=O)N[C@@H](CC(N)=O)C(=O)N[C@@H](Cc1c[nH]c2ccccc12)C(=O)N[C@@H](CC(N)=O)C(=O)NCC(=O)N[C@@H](Cc1ccccc1)C(=O)NCC(=O)N[C@H](Cc1c[nH]c2ccccc12)C(=O)N[C@@H](CCCNC(=N)N)C(=O)N[C@@H](Cc1ccccc1)C(N)=O` [Peptide 243] (Ac-[dW]NWNGFG[dW]RF-NH2): the “Inhibition … % Inhibition of Max” value stood at 55% and the IC50 worked out at 10 nM.
